Data reported in patent US4064128A, “N,[3-(4'-fluorobenzoyl)propyl]-N2 -(2'-chloro-5'-methylphenoxy)ethyl]p i” (Kali-Chemie Aktiengesellschaft, priority 1971, dated 1977).
Entries after “also recorded” stand apart in the source; their conditions may differ.

What was measured:
[1] = Acute oral toxicity (LD50 p.o.); assay type: in vivo; conditions: for LD50 at 168 h: mouse, in vivo, po, mice, single dose, 7 days survival period; for toxicity (in words): compared with the other tested compounds
Method: Test 1. Acute oral toxicity
The acute oral toxicity (LD50 p.o.) was determined by peroral administration of a single dose of the compound to fasting white male mice.
The lethal dose in terms of milligrams of the compound per kilogram of body weight of the tested animals was computed in accordance with the method described by J. P. Litchfeld and F. Wilcoxon in Journal of Pharmacology and Experimental Therapeutics, vol. 96, page 99 (1949).
The doses that are referred to herein were all computed in accordance with the said method. The results in this test were based upon a survival period of 7 days.

[2] = tested on: hexobarbital sleep duration; assay: Sleep prolongation test (hexobarbital); assay type: in vivo, female mice; conditions: for ED (4-fold prolongation): Mus musculus, po, dose p.o. 30 min before 65 mg/kg i.v. hexobarbital, mice, read-out: Fourfold prolongation of hexobarbital sleep duration; for sedative effect (in words), sleep prolongation and aggression test: prolongation of hexobarbital sleep duration and aggression test
Method: Test 2. Sleep prolongation test
In this test a dose of the test compound is first administered perorally to female mice. After an interval of 30 minutes a dose of 65 milligrams of hexobarbital per kilogram of body weight of the animal is administered intravenously to the mice. The length of the period after administration of the hexabarbital during which the mouse remains sleeping on its side before turning over onto its abdomen, is then noted.

[3] = tested on: aggression induced by clonidine; assay: Inhibition of aggression induced by clonidine (Morpurgo); assay type: in vivo; conditions: Mus musculus, ip, 30 min before 46.4 mg/kg i.p. clonidine, mice; read-out: Aggression test (Morpurgo), ED50
Method: Test 3. Inhibition of aggression induced by clonidine
This test was described by C. Morpurgo in European Journal of Pharmacology,vol. […] In this test 12 mice are separated into pairs and each mouse is injected intraperitoneally with a dose of the test compound. […] Clonidine at this dosage level produces an aggressive behaviour in the mice which expresses itself in violent bouts of fighting and biting. The mice are observed and their behaviour scored in accordance with a point system. The mice are observed during a period of 30 minutes and each pair of mice scores 2 points if, during any 10 minute interval, two or more encounters or bouts had occurred. Six pairs of mice accordingly cannot score more than a total of 36 points during the 30 minute period, which is rated 100%.

phenyl quinone writhing = assay: Analgesic effect, Writhing test (phenyl quinone); assay type: in vivo, male albino mice (NMRI strain); conditions: for ED (effect equal to amidopyrine 100 mg/kg): Mus musculus, oral dose equivalent to 100 mg/kg oral amidopyrine, phenyl quinone 1.5 mg/kg, read-out: Writhing-test (dose producing same effect as amidopyrine)
Method: The analygesic effect of the substance was determined by the Writhing test. The substances to be tested were administered to male albino mice (NMRI strain) in accordance with the method described by E. Sigmund, R. Cadmus and G. Lu in Proc. Soc. exp. […] After 30 minutes, 1.5 mg. of phenyl quinone per kg. of body weight were administered to the test animals through the abdominal cavity. Amidopyrine was orally administered as comparison substance in a dose of 100 mg/kg. The figures set out in Table 2 indicate the oral doses of the compounds according to the invention in mg/kg which produce the same effect as the dose of the comparison substance.

ileum portion = assay: Antihistamine action, Magnus procedure; parameters: species or system Pirbright guinea pigs; conditions: Cavia porcellus, guinea pig ileum, read-out: Antihistamine action ED50
Source text: Test 5. Antihistamine action
The ED50 has been given in mol/1.

[4] = listed as compound of the invention

## Cc1cccc(OCCN2CCN(CCCC(=O)c3ccc(F)cc3)CC2)c1C [2,3-dimethylphenyl]
[1]
  LD50 at 168 h: 1040 mg/kg
[2]
  ED (4-fold prolongation): 120 mg/kg
[3]
  ED50: 4.6 mg/kg
Phenyl quinone writhing
  ED (effect equal to amidopyrine 100 mg/kg): 23 mg/kg

## Cc1ccc(C)c(OCCN2CCN(CCCC(=O)c3ccc(F)cc3)CC2)c1 [2,5-dimethylphenyl]
[1]
  LD50 at 168 h: 1240 mg/kg
[2]
  ED (4-fold prolongation): 100 mg/kg
Phenyl quinone writhing
  ED (effect equal to amidopyrine 100 mg/kg): 17 mg/kg

## O=C(CCCN1CCN(CCOc2c(Cl)cccc2Cl)CC1)c1ccc(F)cc1 [2,6-dichlorophenyl, reference compound]
[1]
  LD50 at 168 h: 1020 mg/kg
[2]
  ED (4-fold prolongation): 117 mg/kg
[3]
  ED50: 7.4 mg/kg

## Cc1ccc(Cl)c(OCCN2CCN(CCCC(=O)c3ccc(F)cc3)CC2)c1 [2-chloro-5-methylphenyl]
[1]; [4]
  toxicity (in words): very substantially lower than that of 4-nitrophenyl; also recorded: low toxicity
[1]
  LD50 at 168 h: 464 mg/kg
[2]
  ED (4-fold prolongation): 7 mg/kg
  sedative effect (in words), sleep prolongation and aggression test: substantially better results in regard to sedative effects
[2]; [4]
  sedative effect (in words), sleep prolongation and aggression test: the same or better than that of the 4-nitrophenyl compound
[3]
  ED50: 0.35 mg/kg
Phenyl quinone writhing
  ED (effect equal to amidopyrine 100 mg/kg): 6 mg/kg
Phenyl quinone writhing; Writhing test
  analgesic effect (in words): good analgesic effects
Ileum portion
  IC50: 7 nM

## Cc1cc(C)cc(OCCN2CCN(CCCC(=O)c3ccc(F)cc3)CC2)c1 [3,5-dimethylphenyl]
[1]
  toxicity (in words): even a higher toxicity
  LD50 at 168 h: 297 mg/kg
[2]
  ED (4-fold prolongation): 68 mg/kg
  sedative effect (in words), sleep prolongation and aggression test: less satisfactory sedative effect
Phenyl quinone writhing
  ED (effect equal to amidopyrine 100 mg/kg): 6.9 mg/kg

## Cc1cc(Cl)ccc1OCCN1CCN(CCCC(=O)c2ccc(F)cc2)CC1 [4-chloro-2-methylphenyl]
[1]
  LD50 at 168 h: 1000 mg/kg
[2]
  ED (4-fold prolongation): 100 mg/kg
[3]
  ED50: 2.5 mg/kg
Phenyl quinone writhing
  ED (effect equal to amidopyrine 100 mg/kg): 68.1 mg/kg
Ileum portion
  IC50: 17 nM

## O=C(CCCN1CCN(CCOc2ccc(Cl)cc2)CC1)c1ccc(F)cc1 [4-chlorophenyl, reference compound]
[1]
  LD50 at 168 h: 336 mg/kg
[2]
  ED (4-fold prolongation): 21.5 mg/kg
[3]
  ED50: 6 mg/kg
Phenyl quinone writhing
  ED (effect equal to amidopyrine 100 mg/kg): 5.5 mg/kg
Ileum portion
  IC50: 9 nM

## O=C(CCCN1CCN(CCOc2ccc([N+](=O)[O-])cc2)CC1)c1ccc(F)cc1 [4-nitrophenyl]
[1]
  LD50 at 168 h: 215 mg/kg
[2]
  ED (4-fold prolongation): 8 mg/kg
[3]
  ED50: 0.7 mg/kg
Phenyl quinone writhing
  ED (effect equal to amidopyrine 100 mg/kg): 1.8 mg/kg
Ileum portion
  IC50: 4 nM

## O=C(CCCN1CCN(Cc2ccc(F)cc2)CC1)c1ccc(F)cc1 [fluorobenzyl, no O-bridge, reference compound]
[1]
  LD50 at 168 h: 431 mg/kg
[2]
  ED (4-fold prolongation): 18.5 mg/kg
[3]
  ED50: 7.6 mg/kg
Phenyl quinone writhing
  ED (effect equal to amidopyrine 100 mg/kg): 49.5 mg/kg
Ileum portion
  IC50: 120 nM

## COc1ccc(CN2CCN(CCCC(=O)c3ccc(F)cc3)CC2)cc1 [methoxyphenyl, no O-bridge, reference compound]
[1]
  LD50 at 168 h: 431 mg/kg
[2]
  ED (4-fold prolongation): 33.9 mg/kg
[3]
  ED50: 4.7 mg/kg
Phenyl quinone writhing
  ED (effect equal to amidopyrine 100 mg/kg): 62 mg/kg
Ileum portion
  IC50: 150 nM
